Laboratory results: US10654794B2, “Fused tricyclic Γ-amino acid derivative, preparation method therefor, and medical use thereof” (SICHUAN HAISO PHARMACEUTICAL CO., LTD., priority 2016, dated 2020)
Like-named read-outs stand apart in the source and are kept apart here.

Key:
[1] = Pharmacokinetic evaluation in rats; assay type: in vivo, Male SD rats; settings: rat; for Bioavailability F / bioavailability: Oral 10 mg/kg vs I.V. 5 mg/kg; for AUC(0-inf) / half-life / bioavailability / Cmax: male, SD, plasma; for AUC(0-inf): read-out: Area under curve AUC0-inf; for half-life: read-out: Half-life t½ (converted); for bioavailability: read-out: Bioavailability F; for Cmax: read-out: Blood Drug Level Cmax
Procedure: Pharmacokinetic Evaluation
Male SD rats (purchased from Vital River Laboratory Animal Technology Co., Ltd.), each weighing 180 to 240 g, were fasted overnight but allowed access to water. Three rats were administered by oral gavage at a dose of 10 mg/kg, and three rats were intravenously injected at 5 mg/kg. For the oral administration group, the compounds were formulated into 1.0 mg/mL suspensions with a 0.5% methylcellulose (MC) solution, and 200 μl blood was sampled before administration and 30 min, 1 h, 2 h, 4 h, 6 h, 8 h, 12 h and 24 h after administration. For the intravenous injection (I.V.) group, the compounds were formulated into 1.0 mg/ml solutions with physiological saline, and blood was sampled before administration and 5 min, 15 min, 30 min, 1 h, 2 h, 4 h, 8 h, 12 h and 24 h after administration. The blood samples were all anticoagulated with heparin, and centrifuged at 5500 rpm for 10 min to collect plasma, which was stored at −20° C. 10 μl plasma of rats for each of the time points was mixed with a 500 μl acetonitrile solution containing an internal standard, vortexed for 10 min, and centrifuged at 3700 rpm for 18 min. 50 μl of the supernatant was mixed with 100 μl water and vortexed for 10 min. 5 μl of the mixture was subjected to an LC-MS/MS analysis to determine the blood drug level of the parent drugs. The main pharmacokinetic parameters were analyzed using the software WinNonlin 6.3 at the non-compartment mode.

[2] = system: pain in diabetic peripheral neuropathy; settings: patients with diabetic peripheral neuropathy; cited from earlier work

| SMILES | Area under curve AUC0-inf ([1]; I.V., 5 mg/kg) | Half-life t½ ([1]; I.V., 5 mg/kg) | Bioavailability F [1] | Area under curve AUC0-inf ([1]; Oral, 10 mg/kg) | Blood Drug Level Cmax ([1]; Oral, 10 mg/kg) | Half-life t½ ([1]; Oral, 10 mg/kg) | AUC(0-inf) ([1]; iv, 5 mg/kg, I.V., 5 mg/kg) | half-life ([1]; iv, 5 mg/kg, I.V., 5 mg/kg) | bioavailability ([1]; po, 10 mg/kg) | AUC(0-inf) ([1]; po, 10 mg/kg, Oral, 10 mg/kg) | Cmax ([1]; po, 10 mg/kg, Oral, 10 mg/kg) | half-life ([1]; po, 10 mg/kg, Oral, 10 mg/kg) | proportion of patients whose pain is relieved to a great extent [2] |
| --- | --- | --- | --- | --- | --- | --- | --- | --- | --- | --- | --- | --- | --- |
| NC[C@@]1(CC(=O)O)[C@@H]2C[C@@H]3CC[C@H]1[C@H]2C3 (racemic) [Example 2, (±)-2-((1R,2R,3S,6R,8R)-2-(aminomethyl)tricyclo[4.2.1.0^3,8]nonan-2-yl)acetic acid benzenesulfonic acid (1:1)] | 8147 ng·h/mL | 1.40 h | 83.0% | 13473 ng·h/mL | 3789 ng/mL | 1.40 h |  |  |  |  |  |  |  |
| NC[C@@]1(CC(=O)O)[C@@H]2C[C@H]3C[C@@H]2[C@@H]1C3 [Example 8, 2-(4-(aminomethyl)tricyclo[3.2.1.0^3,6]octan-4-yl)acetic acid benzenesulfonic acid (1:1)] | 11788 ng·h/mL | 1.20 h | 107.9% | 25443 ng·h/mL | 8004 ng/mL | 2.10 h |  |  |  |  |  |  |  |
| NC[C@@]1(CC(=O)O)C2CC[C@H]3C[C@@H]2[C@@H]1C3 (single isomer, unassigned) [Example 5] |  |  |  |  |  |  | 8210 ng·h/mL | 2.4 h | 87% | 14200 ng·h/mL | 4490 ng/mL | 1.6 h |  |
| NC[C@@]1(CC(=O)O)[C@@H]2C[C@@H]3CC[C@H]1[C@H]2C3 (racemic) [Example 1, (±)-2-((1R,2R,3S,6R,8R)-2-(aminomethyl)tricyclo[4.2.1.0^3,8]nonan-2-yl)acetic acid] |  |  |  |  |  |  | 6800 ng·h/mL | 1.3 h | 95% | 12900 ng·h/mL | 3000 ng/mL | 2.3 h |  |
| NCC1(CC(=O)O)C2CCC3CC2C1C3 (stereo not shown) [Example 6] |  |  |  |  |  |  | 8210 ng·h/mL | 2.4 h | 83.2% | 13700 ng·h/mL | 3710 ng/mL | 1.4 h |  |
| NCC1(CC(=O)O)CCCCC1 [gabapentin] |  |  |  |  |  |  |  |  |  |  |  |  | approximately 60% |
| NC[C@@]1(CC(=O)O)[C@@H]2C[C@H]3C[C@@H]2[C@@H]1C3 [Example 7, 2-(4-(aminomethyl)tricyclo[3.2.1.0^3,6]octan-4-yl)acetic acid] |  |  |  |  |  |  | 11800 ng·h/mL | 1.2 h | 97% | 23000 ng·h/mL | 9140 ng/mL | 1.1 h |  |
